Values quoted from earlier work, collected in patent US12678540B2, “Chimeric peptide-modified SIS membrane, preparation method therefor and application thereof” (Beijing Biosis Healing Biological Technology Co., Ltd., priority 2021, dated 2026).

Test system: fibroblasts, epithelial cells and endothelial cells

## Hst1: member of the histatins (HSTs); sequence SHREFPFYGDYGS contains minimal elements to promote cell migration
  migration or adhesion of fibroblasts, epithelial cells and endothelial cells: promote the migration or adhesion
